The assay concerns the target T1, human orexin-2 (hOX2) receptors (Homo sapiens, UniProt O43614).
T1 construct: expressed in transfected cells
T1 sequence (O43614 1-444): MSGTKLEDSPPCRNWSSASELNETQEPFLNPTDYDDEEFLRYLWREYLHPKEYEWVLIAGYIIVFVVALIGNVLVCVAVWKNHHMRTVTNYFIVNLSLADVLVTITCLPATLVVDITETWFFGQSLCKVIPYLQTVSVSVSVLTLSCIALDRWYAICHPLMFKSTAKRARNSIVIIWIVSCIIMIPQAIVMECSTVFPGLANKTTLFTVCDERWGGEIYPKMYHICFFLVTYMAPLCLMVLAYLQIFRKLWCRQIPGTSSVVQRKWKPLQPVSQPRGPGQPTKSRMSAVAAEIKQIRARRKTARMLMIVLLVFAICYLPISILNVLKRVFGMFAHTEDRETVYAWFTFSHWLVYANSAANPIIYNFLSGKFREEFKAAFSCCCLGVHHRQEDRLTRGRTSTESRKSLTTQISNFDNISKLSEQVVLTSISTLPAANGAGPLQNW
Nature of the assay: Intracellular Ca2+ mobilization assay (FLIPR), orexin-A as agonist. The format is cell-based. As to conditions: CHO(dHFr-) cells stably expressing hOX2; antagonist applied 25 min before EC80 of orexin-A; Kb=IC50/(1+[A]/EC50); read-out: Kb (μM) OX2R (human). The procedure: Intracellular Ca^2+ Mobilization Assay
The Chinese Hamster Ovary (dHFr-) mutant cell line stably expressing human orexin-1 (hOX1) or human orexin-2 (hOX2) receptors were maintained in Dulbecco's Modified Eagle Medium (1X) with GlutaMax™ 1, 4500 mg/L D-Glucose and Sodium Pyruvate (Catalog No. 31966-021, Invitrogen, Carlsbad, Calif.), 5% dialyzed fetal calf serum (Catalog No. 26400-044), 100 μg/ml penicillin and 100 μg/ml streptomycin. The cells were seeded at 5×10^4 cells/well in the poly-D-lysine treated, 96-well, black/clear-bottomed plates (Catalog No. BD356640, BD Biosciences, Palo Alto, Calif.). 24 h later, the cells were loaded for 1 hr at 37° C. with 4 μM Flou-4 acetoxymethyl ester (Catalog No. F-14202, Molecular Probes, Eugene, Oreg.) in FLIPR buffer (1×HBSS, 20 mM HEPES, 2.5 mM Probenecid). Hanks' Balanced Salt Solution (HBSS) (10X) (catalog No. 14065-049) and HEPES (1M) (catalog No. 15630-056) were purchased from Invitrogen, Carlsbad, Calif. Probenecid (250 mM) (catalog No. P8761) was from Sigma, Buchs, Switzerland. The cells were washed five times with FLIPR buffer to remove excess dye and intracellular calcium mobilization, [Ca^2+] were measured using a Fluorometric Imaging Plate Reader (FLIPR-96, Molecular Devices, Menlo Park, Calif.) as described previously (Malherbe et al., Mol. Pharmacol., 64, 823-832, 2003). Orexin A (catalog No.1455, Toris Cookson Ltd, Bristol, UK) was used as agonist. Orexin A ([…] stock solution in DMSO) was diluted in FLIPR buffer +0.1% BSA. The EC50 and EC80 values of orexin-A were measured daily from standard agonist concentration-response curves in CHO(dHFr-)-OX1R and —OX2R cell lines. All compounds were dissolved in 100% DMSO. Inhibition curves were determined by addition of 11 concentrations (0.0001-10 μM) of inhibitory compounds and using EC80 value of orexin-A as agonist (a concentration which gave 80% of max agonist response, determined daily). The antagonists were applied 25 min (incubation at 37° C.) before the application of the agonist. Responses were measured as peak increase in fluorescence minus basal, normalized to the maximal stimulatory effect induced by EC80 value of orexin-A or orexin-B. Inhibition curves were fitted according to the Hill equation: y=100/(1+(x/1C50)^nH), where nH=slope factor using Excel-fit 4 software (Microsoft). Kb values were calculated according to the following equation Kb=IC50/(1+[A]/EC50) where A is the concentration of agonist added which is very close to agonist EC80 value, and IC50 and EC50 values were derived from the antagonist inhibition and orexin-A or B agonist curves, respectively.
On to `O=C(CN(c1ccc(Cl)cc1)S(=O)(=O)c1cccc(F)c1)N1CCCC1c1ccc(F)cc1` (stereo not shown) [Example 15, N-(4-Chloro-phenyl)-3-fluoro-N-{2-[2-(4-fluoro-phenyl)-pyrrolidin-1-yl]-2-oxo-ethyl}-benzenesulfonamide], for which the antagonist equilibrium constant (Kb) worked out at 0.0018 µM.

Regarding `Cc1ccc(S(=O)(=O)N(CC(=O)N2CCCC2c2ccc(F)cc2)c2ccc(Cl)cc2)cc1` (stereo not shown) [Example 23, N-(4-Chloro-phenyl)-N-{2-[2-(4-fluoro-phenyl)-pyrrolidin-1-yl]-2-oxo-ethyl}-4-methyl-benzenesulfonamide], the antagonist dissociation constant (Kb) is 0.0013 µM.

Consider `COc1ccc(N(CC(=O)N2CCCC2c2ccccc2)S(=O)(=O)c2ccc(OC)cc2)cc1` (stereo not shown) [Example 27, 4-Methoxy-N-(4-methoxy-phenyl)-N-[2-oxo-2-(2-phenyl-pyrrolidin-1-yl)-ethyl]-benzenesulfonamide], for which the Kb worked out at 0.003 µM.

`COc1ccc(S(=O)(=O)N(CC(=O)N2CCCC2c2ccccc2)c2ccc(Cl)cc2)cc1` (stereo not shown) [Example 2, N-(4-Chloro-phenyl)-4-methoxy-N-[2-oxo-2-(2-phenyl-pyrrolidin-1-yl)-ethyl]-benzenesulfonamide]: the Kb worked out at 0.0049 µM.

Consider `COc1ccc(S(=O)(=O)N(CC(=O)N2CCCC2c2ccccc2)c2cccc(C(F)(F)F)c2)cc1` (stereo not shown) [Example 47, 4-Methoxy-N-[2-oxo-2-(2-phenyl-pyrrolidin-1-yl)-ethyl]-N-(3-trifluoromethyl-phenyl)-benzenesulfonamide], for which the Kb was 0.0077 µM.

On to `O=C(CN(c1ccc(Cl)cc1)S(=O)(=O)c1cccc(Cl)c1)N1CCCC1c1ccccc1` (stereo not shown) [Example 4, 3-Chloro-N-(4-chloro-phenyl)-N-[2-oxo-2-(2-phenyl-pyrrolidin-1-yl)-ethyl]-benzenesulfonamide], for which the Kb was 0.0011 µM.

On to `O=C(CN(c1ccc(Cl)cc1)S(=O)(=O)c1ccc(Cl)cc1)N1CCCC1c1ccc(F)cc1` (stereo not shown) [Example 19, 4-Chloro-N-(4-chloro-phenyl)-N-{2-[2-(4-fluoro-phenyl)-pyrrolidin-1-yl]-2-oxo-ethyl}-benzenesulfonamide], for which the antagonist equilibrium constant (Kb) worked out at 0.002 µM.

Regarding `Cc1ccccc1S(=O)(=O)N(CC(=O)N1CCCC1c1ccc(F)cc1)c1ccc(Cl)cc1` (stereo not shown) [Example 20, N-(4-Chloro-phenyl)-N-{2-[2-(4-fluoro-phenyl)-pyrrolidin-1-yl]-2-oxo-ethyl}-2-methyl-benzenesulfonamide], the Kb worked out at 0.0006 µM.

Take `COc1ccc(N(CC(=O)N2CCCC2c2ccc(F)cc2)S(=O)(=O)c2ccc(OC)cc2)cc1` (stereo not shown) [Example 41, N-{2-[2-(4-Fluoro-phenyl)-pyrrolidin-1-yl]-2-oxo-ethyl}-4-methoxy-N-(4-methoxy-phenyl)-benzenesulfonamide]: the antagonist dissociation constant (Kb) was 0.0026 µM.

In the case of `Cc1cccc(S(=O)(=O)N(CC(=O)N2CCCC2c2ccccc2)c2ccc(Cl)cc2)c1` (stereo not shown) [Example 11, N-(4-Chloro-phenyl)-3-methyl-N-[2-oxo-2-(2-phenyl-pyrrolidin-1-yl)-ethyl]-benzenesulfonamide], the antagonist dissociation constant (Kb) came out at 0.0005 µM.

`Cc1ccc(S(=O)(=O)N(CC(=O)N2CCCC2c2ccccc2)c2ccc(Cl)cc2)cc1` (stereo not shown) [Example 5, N-(4-Chloro-phenyl)-4-methyl-N-[2-oxo-2-(2-phenyl-pyrrolidin-1-yl)-ethyl]-benzenesulfonamide]: the Kb was determined as 0.0019 µM.

For the compound `COc1ccc(S(=O)(=O)N(CC(=O)N2CCCC2c2ccccc2)c2ccc(Cl)cc2)cc1` (stereo not shown) [Example 6, N-(4-Chloro-phenyl)-4-methoxy-N-[2-oxo-2-(2-phenyl-pyrrolidin-1-yl)-ethyl]-benzenesulfonamide], the Kb came to 0.0042 µM.

For the compound `O=C(CN(c1ccc(Cl)cc1)S(=O)(=O)c1cccc(Cl)c1)N1CCCC1c1ccc(F)cc1` (stereo not shown) [Example 18, 3-Chloro-N-(4-chloro-phenyl)-N-{2-[2-(4-fluoro-phenyl)-pyrrolidin-1-yl]-2-oxo-ethyl}-benzenesulfonamide], the Kb came to 0.0014 µM.

With `COc1ccc(S(=O)(=O)N(CC(=O)N2CCCC2c2ccc(F)cc2)c2cccc(F)c2)cc1` (stereo not shown) [Example 31, N-(3-Fluoro-phenyl)-N-{2-[2-(4-fluoro-phenyl)-pyrrolidin-1-yl]-2-oxo-ethyl}-4-methoxy-benzenesulfonamide], the antagonist dissociation constant (Kb) is 0.0064 µM.

For `COc1ccc(S(=O)(=O)N(CC(=O)N2CCCC2c2ccccc2)c2ccccc2OC)cc1` (stereo not shown) [Example 43, 4-Methoxy-N-(2-methoxy-phenyl)-N-[2-oxo-2-(2-phenyl-pyrrolidin-1-yl)-ethyl]-benzenesulfonamide], the antagonist dissociation constant (Kb) was 0.0032 µM.

As for `O=C(CN(c1ccc(Cl)cc1)S(=O)(=O)c1ccccc1F)N1CCCC1c1ccc(F)cc1` (stereo not shown) [Example 16, N-(4-Chloro-phenyl)-2-fluoro-N-{2-[2-(4-fluoro-phenyl)-pyrrolidin-1-yl]-2-oxo-ethyl}-benzenesulfonamide], the Kb amounted to 0.0009 µM.

Regarding `O=C(CN(c1ccc(Cl)cc1)S(=O)(=O)c1ccccc1F)N1CCCC1c1ccccc1` (stereo not shown) [Example 13, N-(4-Chloro-phenyl)-2-fluoro-N-[2-oxo-2-(2-phenyl-pyrrolidin-1-yl)-ethyl]-benzenesulfonamide], the Kb turned out to be 0.0025 µM.

Take `COc1cccc(S(=O)(=O)N(CC(=O)N2CCCC2c2ccccc2)c2ccc(Cl)cc2)c1` (stereo not shown) [Example 1, N-(4-Chloro-phenyl)-3-methoxy-N-[2-oxo-2-(2-phenyl-pyrrolidin-1-yl)-ethyl]-benzenesulfonamide]: the Kb worked out at 0.0017 µM.

On to `Cc1ccccc1S(=O)(=O)N(CC(=O)N1CCCC1c1ccccc1)c1ccc(Cl)cc1` (stereo not shown) [Example 3, N-(4-Chloro-phenyl)-2-methyl-N-[2-oxo-2-(2-phenyl-pyrrolidin-1-yl)-ethyl]-benzenesulfonamide], for which the antagonist dissociation constant (Kb) was determined as 0.0005 µM.

As for `COc1ccccc1S(=O)(=O)N(CC(=O)N1CCCC1c1ccc(F)cc1)c1ccc(Cl)cc1` (stereo not shown) [Example 52, N-(4-Chloro-phenyl)-N-{2-[2-(4-fluoro-phenyl)-pyrrolidin-1-yl]-2-oxo-ethyl}-2-methoxy-benzenesulfonamide], the antagonist dissociation constant (Kb) was 0.0003 µM.

Take `COc1ccc(S(=O)(=O)N(CC(=O)N2CCCC2c2ccccc2)c2ccc(F)cc2)cc1` (stereo not shown) [Example 38, N-(4-Fluoro-phenyl)-4-methoxy-N-[2-oxo-2-(2-phenyl-pyrrolidin-1-yl)-ethyl]-benzenesulfonamide]: the antagonist equilibrium constant (Kb) amounted to 0.0096 µM.

`O=C(CN(c1ccc(Cl)cc1)S(=O)(=O)c1ccc(F)cc1)N1CCCC1c1ccc(F)cc1` (stereo not shown) [Example 40, N-(4-Chloro-phenyl)-4-fluoro-N-{2-[2-(4-fluoro-phenyl)-pyrrolidin-1-yl]-2-oxo-ethyl}-benzenesulfonamide]: the antagonist equilibrium constant (Kb) was 0.0005 µM.

As for `O=C(CN(c1ccc(Cl)cc1)S(=O)(=O)c1ccc(Cl)cc1)N1CCCC1c1ccccc1` (stereo not shown) [Example 8, 4-Chloro-N-(4-chloro-phenyl)-N-[2-oxo-2-(2-phenyl-pyrrolidin-1-yl)-ethyl]-benzenesulfonamide], the Kb came to 0.0022 µM.

Take `COc1cccc(S(=O)(=O)N(CC(=O)N2CCCC2c2ccc(F)cc2)c2ccc(Cl)cc2)c1` (stereo not shown) [Example 21, N-(4-Chloro-phenyl)-N-{2-[2-(4-fluoro-phenyl)-pyrrolidin-1-yl]-2-oxo-ethyl}-3-methoxy-benzenesulfonamide]: the antagonist equilibrium constant (Kb) stood at 0.0006 µM.

`O=C(CN(c1ccc(Cl)cc1)S(=O)(=O)c1ccccc1Cl)N1CCCC1c1ccccc1` (stereo not shown) [Example 12, 2-Chloro-N-(4-chloro-phenyl)-N-[2-oxo-2-(2-phenyl-pyrrolidin-1-yl)-ethyl]-benzenesulfonamide]: the Kb is 0.0012 µM.

Source of the values: patent US7932269B2, “Sulfonamides as orexin antagonists” (Hoffmann-La Roche Inc., priority 2008, dated 2011).
